System: mice, streptozocin (STZ) model of type 1 diabetes
Assay: STZ model of diabetic neuropathy, von Frey
Type: in vivo, mouse
Description: Induction of Diabetic neuropathy (STZ model).
Diabetes was induced by a single i.p. injection of […] streptozocin (STZ) solution (100 μL/10 g, Sigma-Aldrich S0130, batch #WXBB7152V) in male seven-week-old C57BL/6J (Charles River) mice. Glycemia was tested before, and seven days after injection. All injected mice had blood glucose concentration >350 mg/dL from day seven and were used for analgesic testing of the compounds from day 14. One mouse had to be euthanized at seven days post injection. This experiment was performed by Phenotype Expertise, Marseilles, France - Pain and CNS behaviour CRO under supervision of Stéphane Gaillard, PhD (CEO). […]
The skin wound was closed with two medical clips (Michel Suture Clips, 7.5x1.75 mm, Angthos, 12040-01). Post-surgical analgesia included s.c. injection of 5 mg/kg carprofen (Carprosan vet, 50 mg/mL mixed 1:25 in sterile ddH2O, Dechra, Le Vet Beheer B.V., Netherlands, Batch: 050520) right after surgery and the […]
following day. […]
The test battery of the CIBP model was carried out 45 or 90 min after morphine and mPD5 administration respectively to accommodate the peak efficacy […]
Mechanically evoked pain (von Frey test).
Unless otherwise specified, von Frey occurred as described in the following. Animals were habituated to the experimental room for a minimum of 60 min before initiation of the experiment. Mechanical paw withdrawal threshold (PWT) was determined by von Frey measurements of both hind paws. Von Frey filaments ranging from 0.04 to 2 g (g = gram- […]
Filaments in ascending order were applied to the frontocentral plantar surface of the hind paws.
Mice were placed in PVC plastic boxes (11.5 cm x 14 cm) on a wire mesh and allowed minimum 20 min habituation prior of experiment initiation. Each von Frey hair was applied five times with adequate resting periods between each application and number of withdrawals recorded. The withdrawal threshold was determined as the von Frey filament eliciting at least three positive trials out of the five applications in two consecutive filaments. A positive trial was defined as sudden paw withdrawal, flinching and/or paw licking induced by the filament.
For the CIBP model, two habituation sessions were performed on separated days with mice placed in the von Frey equipment for 1-1.5 hours in the presence of the experimenter on day one and random von Frey pocking with the 0.6 g filament on day two. Von Frey monofilaments (North Coast Touch Test, North Coast Medical, Inc.) with target forces of 0.04g, 0.07g, 0.16g, […]
down method” (PWT=10Xf+kδ) starting with the 0.6 g filament. Positive response was defined as; withdrawal, shaking or grooming of paw following a 2-3 second stimulation. In case, of unclear response, stimulus was repeated after 10-15 seconds.
For the STZ model, the mechanical threshold response of the injected mice was measured with […]
injection of test compounds on day 14, mechanical threshold was measured at 1 hour, 2 hours, 4 hours and 6 hours and again on day 15. […]
Thermally evoked pain (Hargreaves test).
A baseline Hargreaves test was performed on day 0 before inflammatory pain was induced as described in section 2.13. In the Hargreaves test, the mouse was placed in a container on a glass table and left to habituate for at least 15 min. Using the Hargreaves apparatus, a heat beam from beneath was directed towards the hind paws of the mouse, and the paw withdrawal time

SMILES: CCCCCCCCCCCCCC(=O)N(CCOCCOCCC(=O)N[C@@H](Cc1c[nH]cn1)C(=O)N[C@@H](Cc1c[nH]c2ccccc12)C(=O)N[C@@H](CC(C)C)C(=O)N[C@@H](CCCCN)C(=O)N[C@H](C(=O)O)C(C)C)CCOCCOCCC(=O)N[C@@H](Cc1c[nH]cn1)C(=O)N[C@@H](Cc1c[nH]c2ccccc12)C(=O)N[C@@H](CC(C)C)C(=O)N[C@@H](CCCCN)C(=O)N[C@H](C(=O)O)C(C)C [mPD5, myristoyl-NPEG4-(HWLKV)2]
- paw withdrawal threshold, left paw, group mean (2 umol/kg, +1h, n = 10): 0.44
- paw withdrawal threshold, left paw, group mean (2 umol/kg, +2h, n = 10): 0.37
- paw withdrawal threshold, left paw, group mean (2 umol/kg, +4h, n = 10): 0.37
- paw withdrawal threshold, left paw, group mean (2 umol/kg, +6h, n = 10): 0.25
- paw withdrawal threshold, left paw, group mean (2 umol/kg, D15, n = 10): 0.17
- paw withdrawal threshold, left paw, group mean (10 umol/kg, +1h, n = 10): 0.58
- paw withdrawal threshold, left paw, group mean (10 umol/kg, +2h, n = 10): 0.6
- paw withdrawal threshold, left paw, group mean (10 umol/kg, +4h, n = 10): 0.38
- paw withdrawal threshold, left paw, group mean (10 umol/kg, +6h, n = 10): 0.21
- paw withdrawal threshold, left paw, group mean (10 umol/kg, D15, n = 10): 0.28
- extension of the effect at the highest dose (male mice, s.c. 10 μmol/kg): extended for another hour
- effect on mechanical hypersensitivity (PWT) (male mice, s.c. 2 and 10 μmol/kg, the first hour after injection): significant relief of mechanical hypersensitivity

Source: publication PMC11530130, “Peripherally restricted PICK1 inhibitor mPD5 ameliorates pain behaviors in murine inflammatory and neuropathic pain models” (JCI Insight, 2024)
